# Measured values reported in patent publication US20100144855A1, “APPLICATION OF SEDOISOPROSAN FOR PREPARATION OF MEDICINE FOR TREATMENT OF HUMAN HBeAg POSITIVE CHRONIC HEPATITIS B” (priority 2008, published 2010).
# What was measured:
# hepatitis B virus = assay: clinical trial, curative effect in HBeAg positive chronic hepatitis B patients; assay type: in vivo, human
# Experimental: The clinical trial protocol was designed according to the randomized, double-blind and controlled principle. The clinical efficacy and the safety of sedoisoprosan for therapy on human HBeAg positive chronic hepatitis B is defined according to the changes of vivo HBV-DNA level, ALT level, vital signs, blood routine indexes, blood biochemical indexes and thyroid function indexes before and after administration and the incidence of adverse events.
# The clinical trials were performed on adult chronic hepatitis B patients who were HBsAg positive, HBeAg positive and HBsAb negative, with HBV-DNA levels more than 10^5 copies/ml and increased ALT.
# Patients enrolled in the clinical trials must meet all the following criteria: signature of informed consent forms; age ≧18 years and ≦65 years; HBsAg positive, HBeAg positive and HBsAb negative for over 6 months; HBV-DNA level ≧10^5 copies/ml; increase in serum ALT level in 6 months before the first administration (ULN<ALT≦10×ULN for twice, wherein ALT≧2×ULN for once); negative pregnancy tests for women of child-bearing age in 24 hours before the first administration; and effective contraception measures used during the clinical trials and within 3 months after the therapy.
# Since the effective doses of sedoisoprosan for reducing serum DHBV-DNA levels of ducks infected with hepatitis B virus was 200 mg/kg and 100 mg/kg (intraperitoneal injection, twice a day), doses of sedoisoprosan for the clinical trials may be between 200 mg and 800 mg (intravenous drip, once a day). […] For the purpose of the present invention, three doses of sedoisoprosan, 200 mg, 400 mg and 800 mg in 250ml 5% glucose solution (intravenous drip, within 60 mins), were used in the clinical trials.
# According to the traditional treatment for chronic hepatitis B with interferon, patients enrolled in the clinical trials were administrated with sedoisoprosan once a day continuously for 4 weeks, then 3 times a week continuously for 8 weeks.
# Three doses of sedoisoprosan, 200 mg, 400 mg and 800 mg respectively, were used for treatment. Mannite of 800 mg was used for negative control.
# Patients enrolled in the clinical trials were randomly divided into four groups, i.e. negative control group (800 mg mannite), low dose group (200 mg sedoisoprosan with 600 mg mannite), median dose group (400 mg sedoisoprosan with 400 mg mannite) and high dose group (800 mg sedoisoprosan) respectively. Each patient was assigned with a CRF No. which was randomly generated by computer.
# Baseline assessment was performed on the day of the first administration, which included medical examination, hematological examination, blood biochemical examination, thyroid function examination, ALT examination and quantitative detection of HBV-DNA. The medical examination included the examination of stature, avoirdupois, blood pressure and pulse rate. The hematological examination included the leucocyte, neutrophil, erythrocyte, platelet and haemoglobin counts, and the prothrombin time. The blood biochemical examination included the examination of serum potassium, sodium, GOT, total bilirubin, AKP, total protein, albumin, total cholesterol, triglyceride, urea nitrogen, creatinine and glucose.
# The patients were followed up at the 1st, 2nd, 4th, 8th and 12th week of the treatment. The blood biochemical examination and the quantitative detection of HBV-DNA was performed at the 2nd, 4th, 8th and 12th week of the treatment, and the adverse events were recorded at the same time. The thyroid function examination was performed at the 12th week of the treatment.
# The primary curative effect index was the virologic response rate at the 12th week of the treatment, i.e. the proportion of patients having HBV-DNA levels not more than 2×10^4 copies/ml or having a decline in HBV-DNA levels of 2 log10 copies/ml compared to the baseline value. […]
# [1] = tested on: duck hepatitis B virus (DHBV); conditions: cited from earlier work
# [2] = animal experiments; cited from earlier work
# [3] = high dose group (800 mg sedoisoprosan), after 12 weeks' treatment
# [4] = high dose group, after 12 weeks' treatment
# [5] = low dose group (200 mg sedoisoprosan with 600 mg mannite), after 12 weeks' treatment
# [6] = median dose group (400 mg sedoisoprosan with 400 mg mannite), after 12 weeks' treatment
compound,measurement,setting,value
"CC1(C)OC2C3COC(CO)(O3)C(O)C2O1 (stereo not drawn) [sedoisoprosan, isopropylidene sedoheptulosan]","HBV-DNA levels, dose-effect relationship","hepatitis B virus; 200, 400, 800 mg, after 12 weeks' treatment",tended to decrease more as the doses increased
same,"The 12th Week Decrease Values of lg(HBV-DNA), mean ± SD","hepatitis B virus; high dose group (800 mg sedoisoprosan), 16 cases",0.96 ± 1.41
same,Biochemical Response Rates,hepatitis B virus; [3],18.75%
same,Combined Response Rates,hepatitis B virus; [3],6.25%
same,HBeAg Negative Conversion Rates,hepatitis B virus; [3],6.25%
same,Virologic Response Rate,"hepatitis B virus; high dose group (800 mg sedoisoprosan), the 4th week, 16 cases",0.00%
same,Virologic Response Rate,"hepatitis B virus; high dose group (800 mg sedoisoprosan), the 8th week, 16 cases",12.50%
same,Virologic Response Rate,"hepatitis B virus; high dose group (800 mg sedoisoprosan), the 12th week, 16 cases",18.75%
same,cases of HBeAg negative conversion,hepatitis B virus; [4],one
same,"decrease values of lg(HBV-DNA), comparison within the group",hepatitis B virus; [4],significant differences
same,effect on hepatitis B virus (conclusion of the clinical trials),hepatitis B virus; human HBeAg positive chronic hepatitis B,effectively inhibit hepatitis B virus
same,"The 12th Week Decrease Values of lg(HBV-DNA), mean ± SD","hepatitis B virus; low dose group (200 mg sedoisoprosan with 600 mg mannite), 13 cases",0.52 ± 1.28
same,Biochemical Response Rates,hepatitis B virus; [5],6.25%
same,Combined Response Rates,hepatitis B virus; [5],0%
same,HBeAg Negative Conversion Rates,hepatitis B virus; [5],0%
same,Virologic Response Rate,"hepatitis B virus; low dose group (200 mg sedoisoprosan with 600 mg mannite), the 4th week, 13 cases",15.38%
same,Virologic Response Rate,"hepatitis B virus; low dose group (200 mg sedoisoprosan with 600 mg mannite), the 8th week, 13 cases",15.38%
same,Virologic Response Rate,"hepatitis B virus; low dose group (200 mg sedoisoprosan with 600 mg mannite), the 12th week, 13 cases",15.38%
same,"The 12th Week Decrease Values of lg(HBV-DNA), mean ± SD","hepatitis B virus; median dose group (400 mg sedoisoprosan with 400 mg mannite), 14 cases",0.40 ± 0.90
same,Biochemical Response Rates,hepatitis B virus; [6],12.50%
same,Combined Response Rates,hepatitis B virus; [6],0%
same,HBeAg Negative Conversion Rates,hepatitis B virus; [6],0%
same,Virologic Response Rate,"hepatitis B virus; median dose group (400 mg sedoisoprosan with 400 mg mannite), the 4th week, 14 cases",0.00%
same,Virologic Response Rate,"hepatitis B virus; median dose group (400 mg sedoisoprosan with 400 mg mannite), the 8th week, 14 cases",0.00%
same,Virologic Response Rate,"hepatitis B virus; median dose group (400 mg sedoisoprosan with 400 mg mannite), the 12th week, 14 cases",14.29%
same,"decrease values of lg(HBV-DNA), comparison within the group","hepatitis B virus; median dose group and low dose group, after 12 weeks' treatment",no significant differences
same,DHBV-DNA level,[1]; animal experiments,reduce
same,serum DHBV-DNA levels,"[1]; ducks infected with hepatitis B virus, intraperitoneal 200 mg/kg or 100 mg/kg twice a day for 14 days, seventh and fourteenth day",obviously decreased
same,activity of ACP and TNE,[2],enhance
same,immune system,[2],regulate
